Tests used:
[1] = tested on: bovine brain capillary endothelial cells in co-culture with astrocytes; experiment: Reversibility of DP-BFA effect on the paracellular permeability of the BBB in vitro; format: cell-based; settings: for permeability of the monolayer for sucrose and inulin: 1 hour incubation
Protocol: In regard with the previous results, 0.16 mg/ml (paracellular opening after 1 hr) and 0.32 mg/ml (paracellular and transcellular openings after 1 hr) were chosen to study the reversibility of the effect of DP-BFA.
Endothelial cells are cocultured 12 days, on the twelfth culture day DP-BFA was added to the cultures for 1 hour, and then removed by replacement of the culture medium. The cultures then were maintained for a further 24 hours without DP-BFA, and subsequently assayed for paracellular permeability.
(§1) Permeability studies were carried out on the monolayer of endothelial cells, using two paracellular tracers: inulin-^3 H and sucrose-^14C.

[2] = tested on: bovine brain capillary endothelial cells (actin filaments); experiment: Actin staining of endothelial cells (fluorescent microscopy); format: cell-based
Protocol: To investigate the origin of this modification of the permeability, fluorescent microscopy studies were undertaken. Actin filaments were localized with bodipy phallo?din (explanations in section 7.1.).
The medium was removed and filter-grown endothelial cells were washed gently twice with Ringer-Hepes buffer.
Filter-grown endothelial cells were fixed in 4% PAF (paraformadehyde, in PHS buffer supplemented with MgCl2, 2 mM and EGTA, 10 mM) for 15 min at 4° C.
PAF was removed and filter-grown endothelial cells were washed once with PHEMS buffer. The filter-grown endothelial cells can be stored in PHEMS buffer at 4° C.
The filter-grown endothelial cells were cut up in eight pieces in a large PHEMS buffer drop and stored in PHEMS. One piece was permeabilized with acetone at -20° C. for 1 min then stored in PHEMS buffer.
Actin filaments were localized with bodipy phallo?din (Molecular Probes, Inc.). The stain was dissolved in 1.5 ml of methanol (200 units/ml) but was used at 5 units/ml. 5 μl of stock solution was evaporated and redissolved in 200 μl of PHS buffer.
1/8 of permeabilized filter-grown endothelial cells was covered with 25 to 50 μl of stain solution, 30 min at room temperature in darkroom. The filter bearing the endothelial cells was rinsed twice with PHEMS buffer, once with water.
The filter-grown endothelial cells were mounted cell-side up on a microscope slide in mowiol. And was examined on a Leitz DMR microscope using oil immersion objectives.

[3] = Stability and solution appearance of DP-BFA; format: physicochemical
Protocol: (§2) DP-BFA is stored in a hermetically sealed dark vial filled with Argon at 5° C. for up to 3 months. The drug quantity was taken out the vial cap with a Teflon spatula. The compound was dissolved in sodium carbonate-sodium bicarbonate buffered saline solution adjusted to pH 8.8-9 at 37° C. A stock solution (12.8 mg/ml) was prepared and kept at 37° C. for 15 minutes. The solution was protected from light by covering it with aluminium foil. […] The desired concentration of DP-BFA was obtained by diluting the stock solution with the buffer. The solutions were filtered through a […] filter. The DP-BFA solutions were kept at 37° C. in vials protected from light, for no more than 6 hours.

rodent brains = experiment: Neurotoxicity by histopathology on fixed sectioned rodent brains; format: in vivo, rat; settings: 20 or 200 μg/ml via internal carotid artery, 3 or 72 hr post infusion
Protocol: Potential neurotoxicity after treatment with M 3,14 was assessed by means of histopathology on fixed sectioned rodent brains.
Nine rodent brains were fixed in 10% neutral buffered formalin. These brains were obtained from rats infused with either buffer, 20 μg/ml, or 200 μg/ml M3,14 via the left internal carotid artery. The experiment was terminated and the samples collected either 3 or 72 hr. post infusion. Specimen and group identification were as follows:
control: 3 hr (2), 72 hr (1);
Upon receipt, coronal sections were prepared through the forebrain, midbrain and hindbrain. The right-left orientation was identified by placing a small cut in the cortex on the right side of the section. The sections were embedded as a single block, processed routinely in paraffin, sectioned at five microns and stained with hematoxylin and eosin. Sections were evaluated qualitatively.

mice = settings: mouse, in vivo
[4] = tested on: bovine brain capillary endothelial cells in co-culture with astrocytes; experiment: Paracellular permeability (inulin and sucrose clearance), in vitro coculture model of the BBB; format: cell-based
Description: The alterations in barrier function on bovine brain capillary endothelial cells in co-culture were investigated. To provide an "in vitro" system for studying brain capillary functions, a process of coculture was used that closely mimics the "in vivo" situation by culturing brain capillary endothelial cells on one side of a filter and astrocytes on the other (Dehouck, et al. (1992) J. Neurochemistry 58:1790-1797). Endothelial cells form a confluent monolayer in 12 days.
Endothelial cells are cultured in the upper compartment on the filter and astrocytes in the lower compartment on the plastic of the Petri dish.
Under these conditions, endothelial cells retain all the endothelial markers (factor VIII--related antigen, nonthrombogenic surface, production of prostacyclin, angiotensin converting enzyme activity) and the characteristics of the blood-brain barrier (presence of tight junctions, paucity of pinocytotic vesicles, monoamine oxidase activity, γ-glutamyltranspeptidase activity).
Two different time points were tested, namely 1 hr and 24 hrs of incubation with DP-BFA, and five different concentrations per time point: 0.04; 0.08; 0.16; 0.24; 0.32 mg/ml corresponding to 0.125; 0.25; 0.5; 0.75; 1×10^-3 M.
as §2
Stock solution of DP-BFA was added directly to the coculture medium (upper compartment) in order to obtain a dilution of 1:40.
as §1
To obtain a concentration-dependent transport parameter, the clearance principle was used. For each time, the increment in cleared volume between successive sampling events was calculated by dividing the amount of transported solute by the donor chamber concentration. The total volume cleared at each point was calculated by summing the incremental cleared volumes up to the given time point: [formula]
where [C]L is the initial luminal tracer concentration, [C]A the abluminal tracer concentration, and VA the volume of the abluminal chamber. During the 45-mim experiment, the clearance volume increased linearly with time. The average volume cleared was plotted versus time, and the slope was estimated by linear regression analysis to give the mean and the SE to the estimate. The slope of the clearance curves for the coculture was denoted PSt, where PS is the permeability x surface area product (in microliters per minute). The slope of the clearance curve for the control filter was denoted PSf.
The PS value for the endothelial monolayer (PSe) was calculated from [formula]
The PSe values were divided by the surface area of the Millicell-PC (4.2 cm^2) to generate the endothelial permeability coefficient (Pe, in centimeters per minute).
In that case, the results are presented as clearance (μl) in function of time (min) and clearance at 45 minutes for each condition.

[5] = 0.16 mg/ml 1 hr, then 24 hrs without DP-BFA
[6] = 0.08 mg/ml, 24 hours incubation

Structure (SMILES): CCCCCCCCCCCCCCC(CCC)C(=O)O (centres unmarked) [M 3/14, 2-propylhexadecanoic acid]
- reversibility of paracellular permeability (clearance at 45 minutes) [1, 5]: complete reversibility
- permeability of the monolayer for sucrose and inulin ([1]; 0.16 mg/ml): increase in the permeability
- decrease of paracellular permeability (clearance at 45 minutes) ([1]; 0.32 mg/ml 1 hr, then 24 hrs without DP-BFA): 50%
- permeability of the monolayer for sucrose and inulin ([1]; 0.32 mg/ml): increase in the permeability
- paracellular breakdown (opening of the tight junctions) ([1]; 0.32 mg/ml, 1 hr): paracellular breakdown (opening of the tight junctions)
- reversibility of DP-BFA effect ([1]; higher concentrations): Partial reversibility
- endothelial cell morphology ([2]; 0.08 mg/ml, 24 hrs): significant morphological changes
- stress fibers (actin staining) ([2]; 0.08 mg/ml, 24 hrs): increase in numerous densely packed stress fibers
- stress fibers (actin staining) [2, 5]: less densely packed stress fibers
- endothelial cell morphology ([2]; 0.16 mg/ml, 1 hr): significant morphological changes
- stress fibers (actin staining) ([2]; 0.16 mg/ml, 1 hr): increase in numerous densely packed stress fibers
- interendothelial cell gaps ([2]; 0.16 mg/ml, 24 hrs): Interendothelial cell gaps in the monolayer could be seen
- appearance of stock solution ([3]; 12.8 mg/ml, carbonate-bicarbonate buffered saline, pH 8.8-9, 37° C.): completely transparent
- stability (sensitivity to light, CO2) ([3]; white powder, sodium salt): sensitive to light and atmospheric CO2
- histopathology (neurotoxicity) (rodent brains; listed as M 3,14): no treatment related changes observed
- histopathology (neurotoxicity) (rodent brains; listed as M3,14): No treatment related changes were observed
- brain edema or general edema (mice): no brain edema or general edema was observed
- increase in permeability of the monolayer for inulin (clearance at 45 minutes) [4, 6]: 179%
- increase in permeability of the monolayer for sucrose (clearance at 45 minutes) [4, 6]: 199%
- paracellular breakdown (opening of the tight junctions) ([4]; 0.08 mg/ml, 24 hrs): paracellular breakdown (opening of the tight junctions)
- increase in permeability of the monolayer for inulin (clearance at 45 minutes) ([4]; 0.16 mg/ml, 1 hour incubation): 636%
- increase in permeability of the monolayer for sucrose (clearance at 45 minutes) ([4]; 0.16 mg/ml, 1 hour incubation): 679%
- paracellular breakdown (opening of the tight junctions) ([4]; 0.16 mg/ml, 1 hr): paracellular breakdown (opening of the tight junctions)
